Results on 7 compounds are retold here after patent US20120065257A1, “USE OF BENZO-FUSED HETEROCYLE SULFAMIDE DERIVATIVES FOR THE TREATMENT OF MIGRAINE” (priority 2006, published 2012).

The subject of series [1] is KCl-induced cortical spreading depression. Put plainly: KCl-induced cortical spreading depression (CSD) assay as model of migraine. Format: in vivo, Sprague-Dawley rats. As to conditions: 100 mg/kg/day p.o. for 35 days. Here is the method:
Cortical spreading depression (CSD) has been implicated in migraine and as a headache trigger, and can be evoked in experimental animals by electrical or chemical stimulation (Kunkler & Kraig, 2003; Lauritzen et al., 1982; Moskowitz, 1984).
Adult male Sprague-Dawley rats (250-600 g) were divided into two treatment groups: vehicle (0.5% methylcellulose; n=13) and Compound #8 (100 mg/kg/day, p.o.; n=7). Results were compared to historical positive controls with valproic acid at 200 mg/kg/day, i.p.
Vehicle or Compound #8 was administered orally once a day for 35 days. On the last day of treatment, rats continued to receive food and water ad libitum, and were given their daily oral dose of vehicle or Compound #8 approximately 1.5 h prior to CSD testing. Rats were anesthetized using isoflurane and intubated via a tracheotomy for mechanical ventilation. Body temperature, blood pressure and heart rate were monitored throughout the procedure to ensure homeostasis. […] The steady (DC) potential and electrocorticogram (EcoG) were recorded with glass micropipettes filled with 200 mM NaCl, […] below the dural surface. […] The number of KCL-induced CSDs was counted for 2 hours. Propagation speed was calculated from the distance (mm) between the recording electrodes 1 and 2, divided by the latency (min) between the CSDs recorded at these sites. […]

The nature of series [2]: Body weight and systemic physiology monitoring during CSD testing. Format: in vivo, Sprague-Dawley rats. As to conditions: 100 mg/kg/day p.o. for 35 days. Here is the method:
Vehicle or Compound #8 was administered orally once a day for 35 days. On the last day of treatment, rats continued to receive food and water ad libitum, and were given their daily oral dose of vehicle or Compound #8 approximately 1.5 h prior to CSD testing. Rats were anesthetized using isoflurane and intubated via a tracheotomy for mechanical ventilation. Body temperature, blood pressure and heart rate were monitored throughout the procedure to ensure homeostasis. Rats were placed in a stereotaxic frame and three burr holes were drilled under saline cooling over the right hemisphere at the following coordinates (mm from bregma): (1) posterior 4.5, lateral 2.0 (occipital cortex): KCL application; (2) posterior 0.5, lateral 2.0 (parietal cortex): recording site 1; (3) anterior 2, lateral 2 (frontal cortex): recording site 2. Dura overlying the occipital cortex was gently removed. The steady (DC) potential and electrocorticogram (EcoG) were recorded with glass micropipettes filled with 200 mM NaCl, […] below the dural surface. An Ag/AgCl reference electrode was placed subcutaneously in the neck. Following surgical preparation, the cortex was allowed to recover for 30 minutes under saline irrigation. Cortical spreading depressions were initiated by placing a cotton ball soaked with 1M KCl on the pial surface. The number of KCL-induced CSDs was counted for 2 hours. Propagation speed was calculated from the distance (mm) between the recording electrodes 1 and 2, divided by the latency (min) between the CSDs recorded at these sites.

The subject of series [3] is KCl-induced cortical spreading depression. The note with it: historical positive control, 200 mg/kg/day i.p. for 4 weeks; saline 18; p<0.05; cited from earlier work.

SMILES strings stand for the structures.

With `NS(=O)(=O)NC[C@H]1COc2cc(Cl)ccc2O1` [Compound #8, (2S)-(−)-N-(6-Chloro-2,3-dihydro-benzo[1,4]dioxin-2-ylmethyl)-sulfamide], in series [1] (1M KCl topical, counted for 2 hours, vehicle 16 ± 3, p=0.12, not significant), the “CSDs (2 h) ≧ 5 mV (number of KCl-induced cortical spreading depressions)” value amounted to 14±3. Moreover, the “Propagation Speed” value in series [1] (vehicle 3.2 ± 1, p=0.06) was 2.7±0.4 mm/min. The “Physiological monitoring, including arterial pH, pCO2, pO2 and blood pressure, versus vehicle” value in series [2] is “did not differ between the groups”. Also, in series [2] (vehicle 7.44 ± 0), the “Systemic Physiology: pH (arterial)” value was found to be 7.42 ± 0.03. Also, the “Systemic Physiology: pCO2” value in series [2] (vehicle 38 ± 3, in mmHg (unit assumed)) amounted to 39 ± 3. Further, the “Systemic Physiology: BP” value in series [2] (vehicle 105 ± 14, in mmHg (unit assumed)) was 107 ± 18. In addition, the “Systemic Physiology: pO2” value in series [2] (vehicle 162 ± 9, in mmHg (unit assumed)) is 157 ± 18. The same compound displayed a Body weight in series [2] (vehicle 401 ± 40) of 418 ± 31 g.
`CCCC(CCC)C(=O)O` [valproate, valproic acid]: the “number of cortical spreading depressions” value in series [3] was 14.
In turn, `CN(C)S(=O)(=O)NCC1COc2ccccc2O1` (racemic) [Compound #6, N-(2,3-Dihydro-benzo[1,4]dioxin-2-ylmethyl)-N′,N′ dimethylsulfamide] came in with a melting point of 76 to 78 °C.
Consider `CN(CC1COc2ccccc2O1)S(N)(=O)=O` (racemic) [Compound #7, N-(2,3-Dihydro-benzo[1,4]dioxin-2-ylmethyl)-N-methylsulfamide], for which the melting point lay within 97 to 98 °C.
`NS(=O)(=O)NCC1CCc2ccccc2O1` (centres unmarked) [Compound #10, Chroman-2-ylmethylsulfamide] showed a melting point of 100 to 101 °C.
In the case of `NS(=O)(=O)NC[C@H]1COc2cc(Cl)c(Cl)cc2O1` [Compound #29, (2S)-(−)-N-(6,7 Dichloro-2,3-dihydro-benzo[1,4]dioxin-2-ylmethyl)-sulfamide], the melting point lay in the range of 119 to 121 °C.
`NS(=O)(=O)NCCC1COc2ccccc2O1` (centres unmarked) [Compound #16, 2-(2,3-Dihydro-benzo[1,4]dioxin-2-yl)-ethylsulfamide] displayed a melting point of 101 to 103 °C.

In general, melting point refers to the temperature of the solid-liquid transition.
